Common to all, as to assay: NCI tumour cell line growth inhibition, 48 h
The test system of assay [1] is LOX IMVI melanoma.
Assay [2] relates to HL-60(TB) leukemia.
Assay [3] concerns ACHN renal.
Assay [4] concerns NCI-H23 lung.
The subject of assay [5] is MCF7 breast.
For assay [6], the system named is MDA-MB-435.
Assay [7] concerns RXF 393 renal.
In assay [8] the test system is HCT-15 colon.
The test system of assay [9] is HOP-92 NSCLC.
The subject of assay [10] is NCI/ADR-RES ovarian.

Each structure is given as a SMILES string. Where “and” joins values, the source holds several entries; their conditions need not be identical. Equal entries are not always repeated.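 Where inhibition never reached the appropriate level, the endpoint shown equals the highest concentration tested. Otherwise, values were interpolated linearly from a five-concentration, 48-hour dose response in 96-well plates. At the GI50, growth is halved. At the TGI there is no net growth.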

For `CC(C)(C)[Si](C)(C)OC1[C@@H](COC(=O)NC(=O)CCl)O[C@@H](n2cnc3c(N)ncnc32)[C@H]1O[Si](C)(C)C(C)(C)C` (stereo not given in full), the GI50 was 410 nM in assay [1]; 4520 nM in assay [2]; 1380 nM in assay [3]; 1020 nM in assay [4]; 2260 nM in assay [5]; 2350 nM in assay [6]. Moreover, the GI50 in assay [7] was 2330 nM; in [8], 1000 nM; in [9], 1760 nM; in assay [10], 5440 nM. Also, the TGI in assay [1] was determined as 1130 nM; in assay [2], 12300 nM; in assay [3], 3450 nM; in assay [4], 2320 nM; in assay [5], 9000 nM; in assay [6], 8890 nM. In addition, the TGI in [7] was 7990 nM; in [8] it was 2210 nM; in assay [9], 9240 nM; in assay [10], 12200 nM.
In the case of `COc1ccc2c(c1)C(=O)c1c-2n(CCCN(C)C)c(=O)c2cc([N+](=O)[O-])ccc12`, the GI50 in assay [1], in [2], in assay [3], in assay [4], in [5] and in assay [6] was less than 10 nM each time. Besides, the GI50 is less than 10 nM in assay [7], 23.9 nM in assay [8], 32.9 nM in [9] and less than 10 nM in assay [10]. The TGI in assay [1] was 108 nM; in assay [2], 245 nM; in [3], 103 nM; in [4], 84.9 nM; in [5], 338 nM; in assay [6], 1320 nM. Also, the TGI was 92.6 nM in assay [7], 1290 nM in assay [8], 1440 nM in [9] and 188 nM in assay [10].
As to `COc1ccc2c(c1)-c1c(c3cc(OC)ccc3n(CCN(C)C)c1=O)C2=O`, the GI50 in assay [1] was 658 nM; in assay [2], 1380 nM; in assay [3], 352 nM; in [4], 1590 nM; in assay [5], 221 nM; in assay [6], 950 nM. The GI50 in [7] is 1590 nM; in assay [8] it was 629 nM; in [9], 2650 nM; in assay [10], 659 nM. The TGI in assay [1] is 1850 nM; in assay [2], 5970 nM; in [3], 7070 nM; in assay [4] it was 8820 nM; in [5], 5300 nM; in assay [6] it was 5730 nM. For the same compound, the TGI in assay [7] is 7230 nM; in assay [8] it was 13100 nM; in [9], 50000 nM; in [10], 7410 nM.
For `O=C1NC(=NCCc2ccc(Br)cc2)S/C1=C\c1ccc2ncccc2c1`, the GI50 is greater than 25000 nM in [1]; greater than 25000 nM in [2]; greater than 25000 nM in assay [3]; greater than 25000 nM in [4]; 22100 nM in [5]; 11800 nM in [6]. Also, the GI50 was greater than 20900 nM in assay [7], greater than 22300 nM in assay [8], greater than 25000 nM in [9] and greater than 20600 nM in assay [10]. The TGI in [1], in assay [2], in assay [3], in assay [4], in [5] and in assay [6] was greater than 25000 nM throughout. The TGI in [7], in assay [8], in assay [9] and in [10] was greater than 25000 nM each time.
Consider `COc1ccc2c(c1)/C(=N/OC(C)=O)c1c-2c(OC)nc2ccccc12`, for which the GI50 in [1] is greater than 100000 nM; in assay [2], greater than 100000 nM; in assay [3], 86400 nM; in assay [4], greater than 100000 nM; in assay [5] it was 88300 nM; in [6], greater than 100000 nM. Further, the GI50 in [7] was 77700 nM; in assay [8], greater than 100000 nM; in [9] it was 22500 nM; in assay [10], greater than 100000 nM. The TGI in [1], in assay [2], in assay [3], in assay [4], in [5] and in assay [6] was greater than 100000 nM each time. Besides, the TGI in assay [7] is greater than 100000 nM; in assay [8] it was greater than 100000 nM; in assay [9], 82300 nM; in [10] it was greater than 100000 nM.
For `CNC(=O)c1cc(Oc2ccc(NC(=O)Nc3cc(C(C)(C)C)nn3-c3ccc4ncccc4c3)c(F)c2)ccn1`, the GI50 was 405 nM in assay [1]; 3330 nM and 2530 nM in assay [2]; 915 nM and 475 nM in assay [3]; 1650 nM and 1260 nM in assay [4]; 1150 nM and 1050 nM in assay [5]; 587 nM and 387 nM in assay [6]. The GI50 is 821 nM and 647 nM in assay [7]; 2010 nM and 2350 nM in assay [8]; 460 nM and 446 nM in assay [9]; 2650 nM and 3360 nM in [10]. Moreover, the TGI is 2080 nM in [1]; 6570 nM and 5800 nM in assay [2]; 7470 nM and > 23600 nM in assay [3]; 5910 nM and 4780 nM in assay [4]; 9130 nM and > 53000 nM in assay [5]; 3870 nM and 1750 nM in [6]. Further, the TGI in assay [7] is 2610 nM and 2050 nM; in assay [8] it was 7300 nM and 8530 nM; in assay [9], 4850 nM and 4600 nM; in assay [10] it was 8390 nM and 58400 nM.
Regarding `O=C1/C(=C/c2ccc([N+](=O)[O-])o2)Oc2ccc(Cl)cc21`, the GI50 was 1590 nM in assay [1]; 2080 nM in [2]; 1540 nM in assay [3]; 2110 nM in assay [4]; 1420 nM in assay [5]; 1990 nM in [6]. Also, the GI50 was 1650 nM in [7], 537 nM in assay [8], 1450 nM in assay [9] and 3360 nM in [10]. The TGI in assay [1] came out at 3190 nM; in assay [2] it was 18300 nM; in [3], 2980 nM; in assay [4], 5070 nM; in assay [5], 3920 nM; in [6], 4500 nM. Moreover, the TGI in [7] is 3600 nM; in assay [8] it was 2050 nM; in assay [9], 3310 nM; in assay [10], greater than 100000 nM.

For the origin of these results see PubChem BioAssay (NCI).
